pIC50: −log10 of the molar value.
How the values were obtained:
Test in all cases: CellTiter-Glo cytotoxicity, cancer cell line panel
Assay type in all cases: cell-based
[1] = test system: HUH-6 CLONE5; settings: HUH-6 CLONE5, Hepatoblastoma carcinoma
Description: (§1) The objective of this study is to investigate potential cell killing effect of Compounds 1-15 on 3 cancer cell lines. 50% inhibition concentration (IC50) was determined for these compounds in various cancer cell lines using CellTiter-Glo™ luminescent cell viability assay at different compound concentrations. Each cell line (e.g., NCI-H209; NCI-H69; and SW1271) was treated with Compounds 1-15 and culture medium contains 0.2% [v/v] DMSO vehicle control. All the cells were cultured in the media supplemented with 10-20% fetal bovine serum at 37° C., 5% CO2 and 95% humidity.
(§2) The objective of this study is to investigate the effect of Compound 1 on cytotoxicity against 61 different types of cancer cell lines. IC50 were values were obtained using CellTiter-Glo™ as described above. Each cell line shown in Table 3 was treated with Compound 1, a standard chemotherapy drug, cisplatin, as reference control and culture medium contains 0.2% [v/v] DMSO vehicle control. All cancer cell lines were cultured in media supplemented with 10-20% fetal bovine serum at 37° C., 5% CO2 and 95% humidity.

[2] = test system: HCCC-9810; settings: HCCC9810; HCCC-9810, Intrahepatic cholangiocarcinoma
Description: as §1, §2

[3] = test system: HCT 116; settings: Homo sapiens; HCT 116, Colon carcinoma
Description: as §1, §2

[4] = test system: LNCaP clone FGC; settings: Homo sapiens, Prostate carcinoma
Description: as §1, §2

[5] = test system: Hep3B; settings: Homo sapiens, Hepatocellular carcinoma
Description: as §1, §2

[6] = test system: SK-NEP-1; settings: Homo sapiens; SK-NEP-1, Ewing sarcoma
Description: as §1, §2

[7] = test system: SNU-761; settings: SNU-761, Hepatocellular carcinoma
Description: as §1, §2

[8] = test system: HLF; settings: Hepatocellular carcinoma
Description: as §1, §2

[9] = test system: OS-RC-2; settings: Homo sapiens; OS-RC-2, Renal cell carcinoma
Description: as §1, §2

[10] = test system: SNU-423; settings: Homo sapiens; SNU-423, Hepatocellular carcinoma
Description: as §1, §2

[11] = test system: SNU-398; settings: Homo sapiens; SNU-398, Hepatocellular carcinoma
Description: as §1, §2

[12] = test system: JHH-1; settings: JHH1; JHH-1, Hepatocellular carcinoma
Description: as §1, §2

[13] = test system: DLD-1; settings: Homo sapiens; DLD-1, Colon adenocarcinoma
Description: as §1, §2

[14] = test system: A549; settings: Homo sapiens; A549, Lung adenocarcinoma
Description: as §1, §2

[15] = test system: HuCCT1; settings: Homo sapiens, HuCCT-1; HuCCT1, Intrahepatic cholangiocarcinoma
Description: as §1, §2

[16] = test system: HUH-7; settings: Homo sapiens; HUH-7, Hepatocellular carcinoma
Description: as §1, §2

[17] = test system: HCCLM3; settings: Homo sapiens; HCCLM3, Hepatocellular carcinoma
Description: as §1, §2

[18] = test system: PLC/PRF/5; settings: Homo sapiens; PLC/PRF/5, Hepatocellular carcinoma
Description: as §1, §2

[19] = test system: 786-O; settings: Homo sapiens, 786-0, Renal cell carcinoma
Description: as §1, §2

[20] = test system: NCI-H1975; settings: Homo sapiens; NCI-H1975, Lung adenocarcinoma
Description: as §1, §2

[21] = test system: U-87 MG; settings: Homo sapiens, Glioblastoma
Description: as §1, §2

[22] = test system: BT-474; settings: Homo sapiens; BT-474, Invasive ductal carcinoma
Description: as §1, §2

[23] = test system: Hep G2/C3A; settings: HepG2/C3A, Hepatoblastoma carcinoma
Description: as §1, §2

[24] = test system: JHH-6; settings: JHH-6, Hepatocellular carcinoma
Description: as §1, §2

[25] = test system: JHH-7; settings: JHH7; JHH-7, Hepatocellular carcinoma
Description: as §1, §2

[26] = test system: MKN45; settings: Homo sapiens, MKN-45; MKN45, Gastric adenocarcinoma
Description: as §1, §2

[27] = test system: 769-P; settings: Homo sapiens, Renal cell carcinoma
Description: as §1, §2

[28] = test system: Li-7; settings: Li-7, Hepatocellular carcinoma
Description: as §1, §2

[29] = test system: RBE; settings: Intrahepatic cholangiocarcinoma
Description: as §1, §2

[30] = test system: SNU-387; settings: Homo sapiens; SNU-387, Hepatocellular carcinoma
Description: as §1, §2

[31] = test system: LN-229; settings: Homo sapiens; LN-229, Glioblastoma
Description: as §1, §2

[32] = test system: SNU-449; settings: Homo sapiens; SNU-449, Hepatocellular carcinoma
Description: as §1, §2

[33] = test system: SK-OV-3; settings: Homo sapiens; SK-OV-3, Ovarian serous cystadenocarcinoma
Description: as §1, §2

[34] = test system: Caki-1; settings: Homo sapiens; Caki-1, Clear cell renal cell carcinoma
Description: as §1, §2

[35] = test system: OZ; settings: Intrahepatic cholangiocarcinoma
Description: as §1, §2

[36] = test system: JHH-4; settings: JHH-4, Hepatocellular carcinoma
Description: as §1, §2

## N=C(N)c1ccc(OCCCCCOc2ccc(C(=N)N)nc2)cc1 [Compound 1, 5-(5-(4-carbamimidoylphenoxy)pentyloxy)picolinimidamide]
[1]
  pIC50: 6.07
[2]
  pIC50: 6.15
[3]
  pIC50: 5.57
[4]
  pIC50: 5.75
[5]
  pIC50: 6.55
[6]
  pIC50: 5.71
[7]
  pIC50: 5.48
[8]
  pIC50: 5.69
[9]
  pIC50: 5.77
[10]
  pIC50: 5.76
[11]
  pIC50: 6.66
[12]
  pIC50: 5.41
[13]
  pIC50: 5.51
[14]
  pIC50: 6.43
[15]
  pIC50: 5.10
[16]
  pIC50: 6.01
[17]
  pIC50: 4.92
[18]
  pIC50: 5.38
[19]
  pIC50: 5.02
[20]
  pIC50: 5.58
[21]
  pIC50: 5.25
[22]
  pIC50: 4.80
[23]
  pIC50: 6.64
[24]
  pIC50: 6.42
[25]
  pIC50: 6.30
[26]
  pIC50: 6.19
[27]
  pIC50: 5.79
[28]
  pIC50: 6.12
[29]
  pIC50: 5.85
[30]
  pIC50: 5.40
[31]
  pIC50: 5.80
[32]
  pIC50: 5.80
[33]
  pIC50: 5.93
[34]
  pIC50: 5.47
[35]
  pIC50: 5.03
[36]
  pIC50: 5.90

Source: US20250388542A1, “ANALOGUES OF PENTAMIDINE AND USES THEREFOR” (Auransa Inc., priority 2018, published 2025)
